The record followed here is patent publication US11919871B1, “3-(3-chlorophenyl)-5-((2-isopropyl-5- methylphenoxy)methyl)-1,2,4-oxadiazole as an anti-cancer and antimicrobial compound” (KING FAISAL UNIVERSITY, priority 2023, dated 2024).

Broadly, the melting point is the temperature of the solid-liquid transition.

In data set [1] the test system is Chrysosporium keratinophilum. Kind of data set: Agar plate disc-diffusion, antifungal inhibition zone. The conditions noted are these: 72 h for fungi. It counts as cell-based. Here is the method:
(§1) The agar plate disc-diffusion method was applied. Sterilized filter papers (6 mm in diameter) were wetted with 10 μL of a solution of 3-(3-chlorophenyl)-5-((2-isopropyl-5-methylphenoxy)methyl)-1,2,4-oxadiazole (3) to be tested, containing 10 mg/mL in DMSO, and the discs were allowed to air dry. The discs were then placed onto the surface of agar plates (nutrient agar for bacteria and Sabouraud's dextrose agar for fungi) seeded with the test organism. Each plate contained 15 mL of the agar medium, previously seeded with 0.2 mL of the broth culture of each organism pregrown for 18 hours. The plates were incubated at 37° C. for 48 h, and 72 h for fungi. The inhibition zones were measured in mm. Discs impregnated with DMSO were used as a control, and its inhibition zone was subtracted from the tested compound actual inhibition zone.

The test system of the next data set is Bacillus cereus. Kind of data set: Agar plate disc-diffusion, antibacterial inhibition zone. The conditions noted are these: 37° C., 48 h. Type of data set: cell-based. Here is the method: (§2) The agar plate disc-diffusion method was applied. […] The discs were then placed onto the surface of agar plates (nutrient agar for bacteria and Sabouraud's dextrose agar for fungi) seeded with the test organism. Each plate contained 15 mL of the agar medium, previously seeded with 0.2 mL of the broth culture of each organism pregrown for 18 hours. The plates were incubated at 37° C. for 48 h, and 72 h for fungi. The inhibition zones were measured in mm. Discs impregnated with DMSO were used as a control, and its inhibition zone was subtracted from the tested compound actual inhibition zone.

In a further data set the test system is Escherichia coli. Described as above. Type of data set: cell-based. As to conditions: 37° C., 48 h. Here is the method:
as §2

The test system of a further data set is Staphylococcus aureus. Described as above. It counts as cell-based. The conditions noted are these: 37° C., 48 h. Here is the method: as §2
The test system of another data set is Pseudomonas aeruginosa. The description is as above. It counts as cell-based. As to conditions: 37° C., 48 h. Here is the method: as §2
The test system of another data set is Aspergillus flavus. The data set is described as follows: Agar plate disc-diffusion, antifungal inhibition zone. It counts as cell-based. As to conditions: 72 h for fungi. Here is the method: as §2
Background: In agar diffusion tests the substance spreads into inoculated agar from a disc or well.

The subject of a further data set is different microbes. Kind of data set: Antimicrobial activity, overall statement (agar plate disc-diffusion). Type of data set: cell-based. The conditions noted are these: against different microbes (bacteria and fungi of Tables 1 and 2). Here is the method:
as §1

For data set [2], the system named is human osteosarcoma cells (MG-63). The data set is described as follows: Cytotoxicity by SRB assay. Type of data set: cell-based. The conditions noted are these: MG-63 cells, 0.01 μM to 100 μM for 72 h. An excerpt: (§3) The anticancer activity of the described synthesized compounds against highly aggressive androgen-independent metastatic human prostate cancer cells (PC3) and osteosarcoma (MG-63) cells. The human prostate cancer cells (PC3) and human osteosarcoma cells (MG-63) were obtained from Nawah Scientific Inc. (Mokatam, Cairo, Egypt) and cultured in DMEM (Dulbecco's modified eagle's medium), Gibco, USA, supplemented with fetal bovine serum (FBS) at a concentration of 10% and 100 U/mL of penicillin and streptomycin (PS). The Cells were incubated at 37° C. in a humidified environment that contained 5% CO2.
(§4) Cells were seeded in 96-well plates as aliquots of 100 μL cell suspension and incubated in a complete media for 24 h. afterward, cells were treated with 3-(3-chlorophenyl)-5-((2-isopropyl-5-methylphenoxy)methyl)-1,2,4-oxadiazole at diverse concentrations ranging from 0.01 μM to 100 μM for 72 h. Then, cells were fixed at 4° C. for one hour with 150 μL of 10% trichloroacetic acid (TCA). […] Then, 150 μL of Tris pH 10.5 (10 mM) was added, and the absorbance was measured at 540 nm using a BMG LABTECH®-FLUOstar Omega microplate reader (Ortenberg, Germany). Half maximal inhibitory concentrations (IC50) values were calculated for each experiment using GraphPad Prism 6 software. […]
(§5) The inhibition was calculated using the following equation: Inhibition %=100−Average Viability
On the technique in general: In SRB staining, fixed cells bind dye roughly in proportion to their protein.

The subject of data set [3] is human prostate cancer cells (PC3). The data set is described as follows: Cytotoxicity by SRB assay. It counts as cell-based. As to conditions: 0.01 μM to 100 μM for 72 h.
Text: as §3, §4, §5

Setting [4] is: A = concentration of comp. = 10,000 μL.
[5] abbreviates: B = concentration of comp. = 30,000 μL.
Where [6] appears, read: C = concentration of comp. = 50,000 μL.

In the case of `O=C(O)c1cn(C2CC2)c2cc(N3CCNCC3)c(F)cc2c1=O` [Cip., ciprofloxacin, reference compound], the inhibition zone in data set [1] (setting [4]) is recorded as 29 mm; in data set [1] (setting [5]), 30 mm; in [1] (setting [6]), 53 mm; in the data set with Bacillus cereus (setting [4]) it was 29 mm; with Bacillus cereus (setting [5]), 30 mm; in the data set with Bacillus cereus (setting [6]), 42 mm. Also, the inhibition zone in the data set with Escherichia coli (setting [4]) amounted to 30 mm; in the data set with Escherichia coli (setting [5]) it was 39 mm; in the data set with Escherichia coli (setting [6]), 60 mm; in the data set on Staphylococcus aureus (setting [4]) it was 43 mm; in the data set on Staphylococcus aureus (setting [5]) it was 44 mm; in the data set with Staphylococcus aureus (setting [6]) it was 53 mm. Besides, the inhibition zone in the data set with Pseudomonas aeruginosa (setting [4]) was found to be 29 mm; in the data set on Pseudomonas aeruginosa (setting [5]), 30 mm; in the data set on Pseudomonas aeruginosa (setting [6]), 53 mm; in the data set with Aspergillus flavus (setting [4]) it was 29 mm; in the data set on Aspergillus flavus (setting [5]), 30 mm; in the data set with Aspergillus flavus (setting [6]) it was 42 mm.
In turn, `Cc1ccc(C(C)C)c(OCc2nc(-c3cccc(Cl)c3)no2)c1` [Compound 3, 3-(3-chlorophenyl)-5-((2-isopropyl-5-methylphenoxy)methyl)-1,2,4-oxadiazole] gave a melting point of 151 to 153 °C. For the same molecule, the inhibition zone in data set [1] (setting [4]) amounted to 27 mm. The molecule also displayed an inhibition zone in data set [1] (setting [5]) of 29 mm. This molecule also registered an inhibition zone in [1] (setting [6]) of 48 mm. For the same molecule, the inhibition zone in the data set on Bacillus cereus (setting [4]) amounted to 30 mm. The molecule also returned an inhibition zone in the data set on Bacillus cereus (setting [5]) of 31 mm. Besides, in the data set with Bacillus cereus (setting [6]), the inhibition zone is on record as 39 mm. Also, in the data set on Escherichia coli (setting [4]), the inhibition zone came out at 24 mm. Moreover, the inhibition zone with Escherichia coli (setting [5]) is 35 mm. In the data set with Escherichia coli (setting [6]), this molecule gave an inhibition zone of 50 mm. In the data set on Staphylococcus aureus (setting [4]), this molecule displayed an inhibition zone of 13 mm. In the data set on Staphylococcus aureus (setting [5]), this molecule came in with an inhibition zone of 17 mm. In the data set on Staphylococcus aureus (setting [6]), the inhibition zone is 20 mm. Besides, the inhibition zone in the data set with Pseudomonas aeruginosa (setting [4]) is listed as 24 mm. This molecule also came in with an inhibition zone in the data set with Pseudomonas aeruginosa (setting [5]) of 28 mm. Further, in the data set on Pseudomonas aeruginosa (setting [6]), the inhibition zone was 38 mm. Besides, the antimicrobial activities entry with different microbes was “excellent antimicrobial activities”. The inhibition zone in the data set on Aspergillus flavus (setting [4]) was 18 mm. The molecule also displayed an inhibition zone in the data set on Aspergillus flavus (setting [5]) of 20 mm. The molecule also had an inhibition zone in the data set with Aspergillus flavus (setting [6]) of 29 mm.
For `Cc1ccc(C(C)C)c(OCc2nc(-c3cccc(Cl)c3)no2)c1` [3-(3-chlorophenyl)-5-((2-isopropyl-5-methylphenoxy)methyl)-1,2,4-oxadiazole], the antiproliferative activities result in [2] and in data set [3] was “excellent antiproliferative activities” throughout.
